Results published in ChEMBL document CHEMBL1148299 (J Med Chem, 2004).

Experiments:
[1] = system: Rattus norvegicus; test: Area under curve value 6 hr after po administration in rat; assay type: ADME, organism-based; set-up: time < 6 hr, route oral; concentration or dose not given beside the values; conditions: in vivo
[2] = target: C-C chemokine receptor type 5 (Homo sapiens, UniProt P51681); test: Antagonistic activity against C-C chemokine receptor type 5; assay type: functional
[3] = target: T1, Muscarinic acetylcholine receptor M1 (Homo sapiens, UniProt P11229); test: Antagonistic activity against muscarinic M1 receptor; assay type: functional
T1 sequence (P11229 whole entry): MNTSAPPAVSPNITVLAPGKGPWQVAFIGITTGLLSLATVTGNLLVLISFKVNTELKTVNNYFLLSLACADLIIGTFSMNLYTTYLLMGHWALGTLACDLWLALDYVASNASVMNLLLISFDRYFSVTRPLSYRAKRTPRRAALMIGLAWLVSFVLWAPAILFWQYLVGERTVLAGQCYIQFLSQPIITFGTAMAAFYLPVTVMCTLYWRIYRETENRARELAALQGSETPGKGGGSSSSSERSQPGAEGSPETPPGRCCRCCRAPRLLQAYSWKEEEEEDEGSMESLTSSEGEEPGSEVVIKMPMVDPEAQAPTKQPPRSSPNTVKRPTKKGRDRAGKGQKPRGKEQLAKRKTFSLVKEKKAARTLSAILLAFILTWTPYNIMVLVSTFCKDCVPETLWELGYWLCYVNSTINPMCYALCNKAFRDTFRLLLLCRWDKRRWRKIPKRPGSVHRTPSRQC

[4] = target: T2, Muscarinic acetylcholine receptor M2 (Homo sapiens, UniProt P08172); test: Antagonistic activity against Muscarinic acetylcholine receptor M2; assay type: functional
T2 sequence (P08172 whole entry): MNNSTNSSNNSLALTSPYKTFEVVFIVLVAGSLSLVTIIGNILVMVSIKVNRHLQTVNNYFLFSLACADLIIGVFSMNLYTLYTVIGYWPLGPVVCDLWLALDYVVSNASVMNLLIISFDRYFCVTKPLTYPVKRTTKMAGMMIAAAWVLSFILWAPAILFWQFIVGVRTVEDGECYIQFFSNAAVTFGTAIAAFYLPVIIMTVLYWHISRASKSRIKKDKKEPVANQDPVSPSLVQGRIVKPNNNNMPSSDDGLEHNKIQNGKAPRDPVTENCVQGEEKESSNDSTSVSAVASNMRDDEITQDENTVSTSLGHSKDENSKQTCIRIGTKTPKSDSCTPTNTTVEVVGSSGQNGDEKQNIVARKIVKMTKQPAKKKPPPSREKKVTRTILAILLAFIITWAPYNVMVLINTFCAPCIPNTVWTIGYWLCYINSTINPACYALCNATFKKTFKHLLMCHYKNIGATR

[5] = target: Muscarinic acetylcholine receptor M3 (Homo sapiens, UniProt P20309); test: Antagonistic activity against muscarinic M3 receptor; assay type: functional
[6] = (§1) Compound was tested for the inhibition of HIV-1 301657 clinical isolate in PBMC cultures; assay type: functional; conditions: Homo sapiens
[7] = (§2) Compound was tested for the inhibition of HIV-1 ADA-M clinical isolate in PBMC cultures; assay type: functional; conditions: Homo sapiens
[8] = (§3) Compound was tested for the inhibition of HIV-1 JV1083 clinical isolate in PBMC cultures; assay type: functional; conditions: Homo sapiens
[9] = (§4) Compound was tested for the inhibition of HIV-1 JrFL clinical isolate in PBMC cultures; assay type: functional; conditions: Homo sapiens
[10] = (§5) Compound was tested for the inhibition of HIV-1 RU 570 clinical isolate in PBMC cultures; assay type: functional; conditions: Homo sapiens
[11] = Compound was tested for inhibiting the entry of replication deffective HIV-1 (YU-2) in to […] cells; assay type: functional, cell-based; conditions: Homo sapiens
[12] = Area under curve value 24 hr after 2 mg/kg iv administration in monkeys; assay type: ADME, organism-based; set-up: time < 24 hr, dose 2 mg/kg, route intravenous; conditions: cercopithecidae, in vivo
[13] = Area under curve value 24 hr after 2 mg/kg oral administration in monkeys; assay type: ADME, organism-based; set-up: time < 24 hr, dose 2 mg/kg, route oral; conditions: cercopithecidae, in vivo
[14] = Bioavailability in monkey (dose 2 mg/kg); assay type: ADME, organism-based; conditions: cercopithecidae, in vivo
[15] = Half-life 24 hr after 2 mg/kg iv administration in rats; assay type: ADME, organism-based; set-up: dose 2 mg/kg, route intravenous; conditions: rat, in vivo
[16] = Cmax 24 hr after 2 mg/kg oral administration in monkeys; assay type: ADME, organism-based; set-up: dose 2 mg/kg, route oral; conditions: cercopithecidae, in vivo
[17] = system: Rattus norvegicus; test: Area under curve value 24 hr after 2 mg/kg iv administration in rats; assay type: ADME, organism-based; set-up: time < 24 hr, dose 2 mg/kg, route intravenous; conditions: in vivo
[18] = system: Rattus norvegicus; test: Area under curve value 24 hr after 2 mg/kg oral administration in rats; assay type: ADME, organism-based; set-up: time < 24 hr, dose 2 mg/kg, route oral; conditions: in vivo
[19] = Cmax 24 hr after 2 mg/kg oral administration in rats; assay type: ADME, organism-based; set-up: dose 2 mg/kg, route oral; conditions: rat, in vivo
[20] = species: Homo sapiens; test: as §1; assay type: functional
[21] = species: Homo sapiens; test: as §2; assay type: functional
[22] = species: Homo sapiens; test: as §3; assay type: functional
[23] = species: Homo sapiens; test: as §4; assay type: functional
[24] = species: Homo sapiens; test: as §5; assay type: functional
[25] = Half-life 24 hr after 2 mg/kg iv administration in monkeys; assay type: ADME, organism-based; set-up: dose 2 mg/kg, route intravenous; conditions: cercopithecidae, in vivo
[26] = Bioavailability after administration of 2 mg/kg in rats; assay type: ADME, organism-based; conditions: rat, in vivo, read-out: Bioavailabiility
[27] = Half-life 24 hr after 10 mg/kg iv administration in rats; assay type: ADME, organism-based; set-up: dose 10 mg/kg, route intravenous; conditions: rat, in vivo
[28] = Bioavailability after administration of 10 mg/kg in rats; assay type: ADME, organism-based; conditions: rat, in vivo, read-out: Bioavailabiility
[29] = system: Rattus norvegicus; test: Area under curve value 24 hr after 10 mg/kg iv administration in rats; assay type: ADME, organism-based; set-up: time < 24 hr, dose 10 mg/kg, route intravenous; conditions: in vivo
[30] = system: Rattus norvegicus; test: Area under curve value 24 hr after 10 mg/kg oral administration in rats; assay type: ADME, organism-based; set-up: time < 24 hr, dose 10 mg/kg, route oral; conditions: in vivo
[31] = Cmax 24 hr after 10 mg/kg oral administration in rats; assay type: ADME, organism-based; set-up: dose 10 mg/kg, route oral; conditions: rat, in vivo

Chain of Muscarinic acetylcholine receptor M3 (P20309 whole entry): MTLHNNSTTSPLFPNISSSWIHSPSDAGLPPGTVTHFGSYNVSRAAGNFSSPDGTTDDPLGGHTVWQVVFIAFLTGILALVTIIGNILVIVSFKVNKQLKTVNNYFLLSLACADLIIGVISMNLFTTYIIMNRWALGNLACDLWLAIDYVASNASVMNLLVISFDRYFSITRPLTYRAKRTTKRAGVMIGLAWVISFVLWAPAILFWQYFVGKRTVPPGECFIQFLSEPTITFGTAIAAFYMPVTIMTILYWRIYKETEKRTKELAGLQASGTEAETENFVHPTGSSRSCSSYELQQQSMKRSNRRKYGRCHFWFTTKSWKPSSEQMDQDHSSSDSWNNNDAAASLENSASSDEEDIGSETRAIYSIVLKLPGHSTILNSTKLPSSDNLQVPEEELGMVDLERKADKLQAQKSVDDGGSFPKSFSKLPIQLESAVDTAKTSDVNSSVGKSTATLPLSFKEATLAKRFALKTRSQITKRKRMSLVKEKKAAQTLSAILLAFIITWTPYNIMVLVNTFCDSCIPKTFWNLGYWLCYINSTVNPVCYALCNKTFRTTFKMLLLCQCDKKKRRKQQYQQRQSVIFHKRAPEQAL
Chain of C-C chemokine receptor type 5 (P51681 whole entry): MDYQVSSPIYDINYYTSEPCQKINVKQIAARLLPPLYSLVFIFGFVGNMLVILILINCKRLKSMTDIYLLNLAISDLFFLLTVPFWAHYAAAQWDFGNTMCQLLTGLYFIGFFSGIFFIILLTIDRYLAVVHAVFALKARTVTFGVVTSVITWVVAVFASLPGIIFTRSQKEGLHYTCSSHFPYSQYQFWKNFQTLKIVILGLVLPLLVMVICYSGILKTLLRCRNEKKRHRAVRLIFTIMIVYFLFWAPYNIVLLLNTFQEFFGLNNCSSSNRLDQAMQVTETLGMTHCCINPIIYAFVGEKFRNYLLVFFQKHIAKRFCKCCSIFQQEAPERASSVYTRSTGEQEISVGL

Compound | AUC 0-6h [1] | Ki [2] | Ki [3] | Ki [4] | Ki [5] | IC90 [6] | IC90 [7] | IC90 [8] | IC90 [9] | IC90 [10] | IC50 [11] | other results
CC[C@@H](c1ccc(C(F)(F)F)cc1)N1CCN(C2(C)CCN(C(=O)c3c(C)ncnc3C)CC2)C[C@@H]1C | 7310 ng·h/mL | 5.2 nM | 3900 nM | 4750 nM | 9090 nM | 16 nM | 21 nM | 18 nM | 19 nM | 1000 nM | 0.18 nM | –
Cc1ncnc(C)c1C(=O)N1CCC(C)(N2CCN([C@@H](C)c3ccc(C(F)(F)F)cc3)[C@@H](C)C2)CC1 | 6210 ng·h/mL | – | 575 nM | – | 716 nM | 13 nM | 19 nM | 31 nM | 40 nM | > 1000 nM | 0.39 nM | –
Cc1ncnc(C)c1C(=O)N1CCC(C)(N2CCN([C@@H](CC3CC3)c3ccc(C(F)(F)F)cc3)[C@@H](C)C2)CC1 | 5900 ng·h/mL | 1.6 nM | 1890 nM | 3510 nM | – | – | – | – | – | – | 0.8 nM | –
CCC[C@@H](c1ccc(C(F)(F)F)cc1)N1CCN(C2(C)CCN(C(=O)c3c(C)ncnc3C)CC2)C[C@@H]1C | 4600 ng·h/mL | 1.1 nM | 6070 nM | 4760 nM | > 5300 nM | – | – | – | – | – | 0.35 nM | AUC 0-24h [12]: 2670 ng·h/mL; AUC 0-24h [13]: 1760 ng·h/mL; bioavailability [14]: 66%; half-life [15]: 15.5 h; Cmax [16]: 240 ng/mL; AUC 0-24h [17]: 4550 ng·h/mL; AUC 0-24h [18]: 3270 ng·h/mL; Cmax [19]: 311 ng/mL; IC90 [20]: 0.09 nM; IC90 [21]: 0.03 nM; IC90 [22]: 0.27 nM; IC90 [23]: 0.01 nM; IC90 [24]: 0.43 nM; half-life [25]: 6.3 h; bioavailability [26]: 72%
Cc1ncnc(C)c1C(=O)N1CCC(C)(N2CCN([C@@H](Cc3ccccc3)c3ccc(C(F)(F)F)cc3)[C@@H](C)C2)CC1 | 2030 ng·h/mL | 1.4 nM | > 3900 nM | > 5700 nM | > 5300 nM | 0.6 nM | 0.04 nM | 0.25 nM | 0.19 nM | 4 nM | 0.13 nM | –
Cc1ncnc(C)c1C(=O)N1CCC(C)(N2CCN([C@@H](CCC(F)(F)F)c3ccc(C(F)(F)F)cc3)[C@@H](C)C2)CC1 | 4600 ng·h/mL | – | > 3700 nM | > 6700 nM | – | – | – | – | – | – | 1.44 nM | –
CCO/N=C(\c1ccc(Br)cc1)C1CCN(C2(C)CCN(C(=O)c3c(C)cc[n+]([O-])c3C)CC2)CC1 [ANCRIVIROC] | – | – | – | – | – | 43 nM | 25 nM | 10 nM | 19 nM | 400 nM | – | –
COC[C@@H](c1ccc(C(F)(F)F)cc1)N1CCN(C2(C)CCN(C(=O)c3c(C)ncnc3C)CC2)C[C@@H]1C [VICRIVIROC] | 6900 ng·h/mL | – | > 10000 nM | > 10000 nM | – | 1.8 nM | 2.8 nM | 4.9 nM | 3.3 nM | 10 nM | 0.46 nM | AUC 0-24h [12]: 2240 ng·h/mL; AUC 0-24h [13]: 1990 ng·h/mL; bioavailability [14]: 89%; half-life [27]: 8 h; Cmax [16]: 670 ng/mL; bioavailability [28]: 100%; AUC 0-24h [29]: 21000 ng·h/mL; AUC 0-24h [30]: 21000 ng·h/mL; Cmax [31]: 2300 ng/mL; half-life [25]: 3.5 h
